The subject of test [1] is E. coli ATCC 25922 (AECO001). Kind of test: MIC, CLSI broth microdilution. The test is classed as cell-based. To be noted: Escherichia coli. How it is done: (§1) Minimum inhibitory concentrations (MIC) were determined by reference Clinical and Laboratory Standards Institute (CLSI) broth microdilution methods per M7-A7 [2006]. Quality control ranges utilizing E. coli ATCC 25922, P. aeruginosa ATCC 27853 and S. aureus ATCC 29213, and interpretive criteria for comparator agents were as published in CLSI M100-S17 [2007]. Briefly, serial two-fold dilutions of the test compounds were prepared at 2× concentration in Mueller Hinton Broth. The compound dilutions were mixed in 96-well assay plates in a 1:1 ratio with bacterial inoculum. The inoculum was prepared by suspension of a colony from an agar plate that was prepared the previous day. Bacteria were suspended in sterile saline and added to each assay plate to obtain a final concentration of 5×10^5 CFU/mL. The plates were incubated at 35° C. for 20 hours in ambient air.

Test [2] deals with P. aeruginosa ATCC 27853 (APAE001). Kind of test: MIC, CLSI broth microdilution. In kind it is cell-based. Conditions: Pseudomonas aeruginosa. How it is done:
as §1

Setting [3] is: ATCC25922, read-out: MIC AECO001, Table 1, AECO001 is ATCC25922.
Setting [4] is: ATCC27853, read-out: MIC APAE001, Table 1, APAE001 is ATCC27853.
Where [5] appears, read: ATCC25922, Table 2, read-out: MIC E. coli.
The mark [6] stands for this setting: Table 1, AECO001 is ATCC25922, read-out: MIC AECO001.
Setting [7] is: ATCC27853, Table 2, read-out: MIC P. aeruginosa.

Molecules are shown by their SMILES. In brackets after ≈: the same amount, converted by molar mass. Like-named read-outs stand apart in the source and are kept apart here.

With `CN[C@@H]1[C@@H](O)[C@@H](O[C@@H]2[C@@H](O)[C@H](O[C@H]3OC(CNCC(O)CCN)=CC[C@H]3N)[C@@H](N)C[C@H]2NC(=O)[C@@H](O)CN)OC[C@]1(C)O` (stereo partly drawn) [Example 68, 6′-(2-Hydroxy-4-amino-butyl)-1-(3-amino-2(S)-hydroxy-propionyl)-sisomicin], the MIC in test [1] (setting [3]) and in test [2] (setting [4]) was 1 to 16 µg/mL (≈ 1.61 to 25.7 µM) each time.

As for `CN[C@@H]1[C@@H](O)[C@@H](O[C@@H]2[C@@H](O)[C@H](O[C@H]3OC(CNCC4CNC4)=CC[C@H]3N)[C@@H](N)C[C@H]2NC(=O)[C@@H](O)CN)OC[C@]1(C)O` [Example 73, 6′-(Methyl-azetidin-3-yl)-1-(3-amino-2(S)-hydroxy-propionyl)-sisomicin], the minimum inhibitory concentration (MIC) in test [1] (setting [3]) and in test [2] (setting [4]) was 1 to 16 µg/mL (≈ 1.66 to 26.5 µM) throughout.

In the case of `CN[C@@H]1[C@@H](O)[C@@H](O[C@@H]2[C@@H](O)[C@H](O[C@H]3OC(CN)=CC[C@H]3NCC(C)(C)CN(C)C)[C@@H](N)C[C@H]2NC(=O)[C@@H](O)CCN)OC[C@]1(C)O` [Example 94, 2′-(N,N-Dimethyl-2,2-dimethyl-3-amino-propyl)-1-(4-amino-2(S)-hydroxy-butyryl)-sisomicin], the MIC in test [1] (setting [3]) is 1 to 16 µg/mL (≈ 1.51 to 24.2 µM); in test [2] (setting [4]) it was over 16 µg/mL.

Turning to `CN[C@@H]1[C@@H](O)[C@@H](O[C@@H]2[C@@H](O)[C@H](O[C@H]3OC(CNCCCN)=CC[C@H]3N)[C@@H](N)C[C@H]2NC(=O)C(O)C2CNC2)OC[C@]1(C)O` (stereo partly shown) [Example 76, 6′-(3-Amino-propyl)-1-(2-(azetidin-3-yl)-2-hydroxy-acetyl)-sisomicin], the MIC in test [1] (setting [3]) and in test [2] (setting [4]) was 1 to 16 µg/mL (≈ 1.62 to 25.9 µM) each time.

On to `CN[C@@H]1[C@@H](O)[C@@H](O[C@@H]2[C@@H](O)[C@H](O[C@H]3OC(CN)=CC[C@H]3NC[C@H]3C[C@H](N)C3)[C@@H](N)C[C@H]2NC(=O)[C@@H](O)CCN)OC[C@]1(C)O` [Example 104, 2′-(Methyl-trans-3-amino-cyclobutyl)-1-(4-amino-2(S)-hydroxy-butyryl)-sisomicin], for which the MIC in test [1] (setting [3]) is under 1 µg/mL; in test [2] (setting [4]) it was 1 to 16 µg/mL (≈ 1.58 to 25.3 µM).

Take `CN[C@@H]1[C@@H](O)[C@@H](O[C@@H]2[C@@H](O)[C@H](O[C@H]3OC(CNC[C@H]4C[C@H](N)C4)=CC[C@H]3N)[C@@H](N)C[C@H]2NC(=O)C2(O)CNC2)OC[C@]1(C)O` [Example 63]: the MIC in test [1] (setting [3]) was under 1 µg/mL; in test [2] (setting [4]), 1 to 16 µg/mL (≈ 1.59 to 25.4 µM).

Regarding `CN[C@@H]1[C@@H](O)[C@@H](O[C@@H]2[C@@H](O)[C@H](O[C@H]3OC(CNCC4(N)CCC4)=CC[C@H]3N)[C@@H](N)C[C@H]2NC(=O)[C@@H](O)CN)OC[C@]1(C)O` [Example 56, 6′-(Methyl-1-amino-cyclobutyl)-1-(3-amino-2(S)-hydroxy-propionyl)-sisomicin], the values for the MIC in test [1] (setting [3]) and in test [2] (setting [4]) were under 1 µg/mL and over 16 µg/mL, respectively.

With `CN[C@@H]1[C@@H](O)[C@@H](O[C@@H]2[C@@H](O)[C@H](O[C@H]3OC(CNCC4CCNCC4)=CC[C@H]3N)[C@@H](N)C[C@H]2NC(=O)[C@H](O)CN)OC[C@]1(C)O` [Example 8, 6′-Methyl-piperidinyl-1-(3-amino-2(R)-hydroxy-propionyl)-sisomicin], the values for the MIC in test [1] (setting [3]) and in test [2] (setting [4]) were under 1 µg/mL and 1 to 16 µg/mL (≈ 1.58 to 25.3 µM), respectively.

With `CN[C@@H]1[C@@H](O)[C@@H](O[C@@H]2[C@@H](O)[C@H](O[C@H]3OC(CNCC(O)CN)=CC[C@H]3N)[C@@H](N)C[C@H]2NC(=O)C(O)C2CNC2)OC[C@]1(C)O` (stereo partly shown) [Example 82, 6′-(2-Hydroxy-3-amino-propyl)-1-(2-(azetidin-3-yl)-2-hydroxy-acetyl)-sisomicin], the results for the MIC in test [1] (setting [3]) and in test [2] (setting [4]) were 1 to 16 µg/mL (≈ 1.58 to 25.2 µM) and over 16 µg/mL, respectively.

On to `CN[C@@H]1[C@@H](O)[C@@H](O[C@@H]2[C@@H](O)[C@H](O[C@H]3OC(CNC[C@H]4C[C@H](N)C4)=CC[C@H]3N)[C@@H](N)C[C@H]2NC(=O)C2(O)CCNC2)OC[C@]1(C)O` (stereo partly drawn) [Example 78, 6′-(Methyl-trans-3-amino-cyclobutyl)-1-(3-hydroxy-pyrrolidin-3-yl-acetyl)-sisomicin], for which the MIC in test [1] (setting [3]) was under 1 µg/mL; in test [2] (setting [4]), 1 to 16 µg/mL (≈ 1.55 to 24.9 µM).

As to `CN[C@@H]1[C@@H](O)[C@@H](O[C@@H]2[C@@H](O)[C@H](O[C@H]3OC(CNCCCN)=CC[C@H]3N)[C@@H](N)C[C@H]2NC(=O)C2(O)CCNC2)OC[C@]1(C)O` (stereo partly shown) [Example 40], the MIC in test [1] (setting [3]) and in test [2] (setting [4]) was 1 to 16 µg/mL (≈ 1.62 to 25.9 µM) in each case.

For `CN[C@@H]1[C@@H](O)[C@@H](O[C@@H]2[C@@H](O)[C@H](O[C@H]3OC(CNCC4CCNCC4)=CC[C@H]3N)[C@@H](N)C[C@H]2NC(=O)[C@@H](O)CN)OC[C@]1(C)O` [Example 15, 6′-(Methyl-piperidin-4-yl)-1-(3-amino-2(S)-hydroxy-propionyl)-sisomicin], the results for the MIC in test [1] (setting [5]), in test [1] (setting [6]) and in test [2] (setting [7]) were under 1 µg/mL, under 1 µg/mL and 1 to 16 µg/mL (≈ 1.58 to 25.3 µM), respectively.

For `CN[C@@H]1[C@@H](O)[C@@H](O[C@@H]2[C@@H](O)[C@H](O[C@H]3OC(CNCC4CCNCC4)=CC[C@H]3N)[C@@H](N)C[C@H]2NC(=O)[C@H](O)CCN)OC[C@]1(C)O` [Example 4, 6′-(Methyl-piperidin-4-yl)-1-(4-amino-2(R)-hydroxy-butyryl)-sisomicin], the MIC in test [1] (setting [3]) and in test [2] (setting [4]) was 1 to 16 µg/mL (≈ 1.55 to 24.8 µM) in each case.

Regarding `CN[C@@H]1[C@@H](O)[C@@H](O[C@@H]2[C@@H](O)[C@H](O[C@H]3OC(CNCC(O)CO)=CC[C@H]3N)[C@@H](N)C[C@H]2NC(=O)[C@H](O)CN)OC[C@]1(C)O` (stereo partly drawn) [Example 10, 6′-(2-Hydroxy-propanol)-1-(3-amino-2(R)-hydroxy-propionyl)-sisomicin], the MIC in test [1] (setting [3]) and in test [2] (setting [4]) was 1 to 16 µg/mL (≈ 1.64 to 26.3 µM) in each case.

Take `CNCC1=CC[C@@H](NC(=N)N)[C@@H](O[C@H]2[C@H](O)[C@@H](O[C@H]3OC[C@](C)(O)[C@H](NC)[C@H]3O)[C@H](N)C[C@@H]2N)O1` [Example 108, 6′-Methyl-2′-guanidinium-sisomicin]: the MIC is under 1 µg/mL in test [1] (setting [3]) and 1 to 16 µg/mL (≈ 1.99 to 31.8 µM) in test [2] (setting [4]).

With `CN[C@@H]1[C@@H](O)[C@@H](O[C@@H]2[C@@H](O)[C@H](O[C@H]3OC(CNCC4CC4)=CC[C@H]3N)[C@@H](N)C[C@H]2NC(=O)C2(O)CCNC2)OC[C@]1(C)O` (stereo partly shown) [Example 41], the MIC in test [1] (setting [3]) is under 1 µg/mL; in test [2] (setting [4]), 1 to 16 µg/mL (≈ 1.63 to 26 µM).

Turning to `CN[C@@H]1[C@@H](O)[C@@H](O[C@@H]2[C@@H](O)[C@H](O[C@H]3OC(CN)=CC[C@H]3NC(=O)C3CCCN3)[C@@H](N)C[C@H]2NC(=O)[C@@H](O)CCN)OC[C@]1(C)O` (stereo partly shown) [Example 90], the MIC was under 1 µg/mL in test [1] (setting [3]) and 1 to 16 µg/mL (≈ 1.55 to 24.8 µM) in test [2] (setting [4]).

With `CN[C@@H]1[C@@H](O)[C@@H](O[C@@H]2[C@@H](O)[C@H](O[C@H]3OC(CNCC(O)CCCN)=CC[C@H]3N)[C@@H](N)C[C@H]2NC(=O)[C@@H](O)CCN)OC[C@]1(C)O` (stereo partly drawn) [Example 32, 6′-(2-Hydroxy-5-amino-pentyl)-1-(4-amino-2(S)-hydroxy-butyryl)-sisomicin], the MIC in test [1] (setting [3]) is under 1 µg/mL; in test [2] (setting [4]) it was 1 to 16 µg/mL (≈ 1.54 to 24.6 µM).

For `CN[C@@H]1[C@@H](O)[C@@H](O[C@@H]2[C@@H](O)[C@H](O[C@H]3OC(CN)=CC[C@H]3NC(=N)N)[C@@H](N)C[C@H]2NC(=O)[C@@H](O)CCN)OC[C@]1(C)O` [Example 103, 2′-Guanidinium-1-(4-amino-2(S)-hydroxy-butyryl)-sisomicin], the MIC in test [1] (setting [5]), in test [1] (setting [6]) and in test [2] (setting [7]) was under 1 µg/mL throughout.

In the case of `CN[C@@H]1[C@@H](O)[C@@H](O[C@@H]2[C@@H](O)[C@H](O[C@H]3OC(CNCCCC(O)CN)=CC[C@H]3N)[C@@H](N)C[C@H]2NC(=O)[C@@H](O)CN)OC[C@]1(C)O` (stereo partly drawn) [Example 80, 6′-(4-Hydroxy-5-amino-pentyl)-1-(3-amino-2(S)-hydroxy-propionyl)-sisomicin], the MIC in test [1] (setting [3]) and in test [2] (setting [4]) was under 1 µg/mL throughout.

As for `CN[C@@H]1[C@@H](O)[C@@H](O[C@@H]2[C@@H](O)[C@H](O[C@H]3OC(CN)=CC[C@H]3NCCCN)[C@@H](N)C[C@H]2NC(=O)[C@@H](O)CCN)OC[C@]1(C)O` [Example 91, 2′-(3-Amino-propyl)-1-(4-amino-2(S)-hydroxy-butyryl)-sisomicin], the MIC in test [1] (setting [3]) and in test [2] (setting [4]) was under 1 µg/mL each time.

As to `CN[C@@H]1[C@@H](O)[C@@H](O[C@@H]2[C@@H](O)[C@H](O[C@H]3OC(CN)=CC[C@H]3NCC3CCCN3)[C@@H](N)C[C@H]2NC(=O)[C@@H](O)CCN)OC[C@]1(C)O` (stereo partly drawn) [Example 85, 2′-(Methyl-pyrrolidin-2-yl)-1-(4-amino-2(S)-hydroxy-butyryl)-sisomicin], the MIC in test [1] (setting [3]) was under 1 µg/mL; in test [2] (setting [4]), 1 to 16 µg/mL (≈ 1.58 to 25.3 µM).

Consider `CN[C@@H]1[C@@H](O)[C@@H](O[C@@H]2[C@@H](O)[C@H](O[C@H]3OC(CNCCO)=CC[C@H]3N)[C@@H](N)C[C@H]2NC(=O)CO)OC[C@]1(C)O` [Example 25, 6′-(2-Hydroxy-ethyl)-1-(2-hydroxy-acetyl)-sisomicin], for which the MIC in test [1] (setting [3]) and in test [2] (setting [4]) was 1 to 16 µg/mL (≈ 1.82 to 29.1 µM) throughout.

Turning to `CN[C@@H]1[C@@H](O)[C@@H](O[C@@H]2[C@@H](O)[C@H](O[C@H]3OC(CNCCC4(O)CNC4)=CC[C@H]3N)[C@@H](N)C[C@H]2NC(=O)[C@@H](O)CN)OC[C@]1(C)O` [Example 70, 6′-(Ethyl-2-(3-hydroxy-azetidin-3-yl))-1-(3-amino-2(S)-hydroxy-propionyl)-sisomicin], the MIC in test [1] (setting [3]) was 1 to 16 µg/mL (≈ 1.58 to 25.2 µM); in test [2] (setting [4]) it was over 16 µg/mL.

As for `CN[C@@H]1[C@@H](O)[C@@H](O[C@@H]2[C@@H](O)[C@H](O[C@H]3OC(CNCC4(O)CCNCC4)=CC[C@H]3N)[C@@H](N)C[C@H]2NC(=O)[C@@H](O)CCN)OC[C@]1(C)O` [Example 31], the MIC in test [1] (setting [3]) and in test [2] (setting [4]) was 1 to 16 µg/mL (≈ 1.51 to 24.2 µM) throughout.

The values are drawn from US20120214760A1, “TREATMENT OF URINARY TRACT INFECTIONS WITH ANTIBACTERIAL AMINOGLYCOSIDE COMPOUNDS” (Achaogen, Inc., priority 2009, published 2012).
